Measured values published in US11213579B2, “Vaccines with enhanced immunogenicity, low allergenicity and reactogenicity” (priority 2018, dated 2022).

Legend:
P. aeruginosa 6616 = assay: Photodynamic inactivation of Pseudomonas aeruginosa, re-seeding on MHA to control inactivation; assay type: cell-based; conditions: initial dose 10 lg CFU/ml, 5 min, 500 μV/ml
[1] = test system: Newcastle disease virus (strain 2M); assay type: cell-based
[2] = photosensitizer 1 nM/L, 320 nm for flavins, 560 nm for phenothiazines and porphyrins
[3] = photosensitizer 5 nM/L, 320 nm for flavins, 560 nm for phenothiazines and porphyrins
[4] = photosensitizer 10 nM/L, 320 nm for flavins, 560 nm for phenothiazines and porphyrins
[5] = photosensitizer 20 nM/L, 320 nm for flavins, 560 nm for phenothiazines and porphyrins
[6] = photosensitizer 40 nM/L, 320 nm for flavins, 560 nm for phenothiazines and porphyrins
[7] = photosensitizer 80 nM/L, 320 nm for flavins, 560 nm for phenothiazines and porphyrins
[8] = photosensitizer 160 nM/L, 320 nm for flavins, 560 nm for phenothiazines and porphyrins
[9] = photosensitizer 320 nM/L, 320 nm for flavins, 560 nm for phenothiazines and porphyrins
[10] = photosensitizer 640 nM/L, 320 nm for flavins, 560 nm for phenothiazines and porphyrins
[11] = wavelength 180 nm, photoinactivator 40 μM/L
[12] = wavelength 220 nm, photoinactivator 40 μM/L
[13] = wavelength 260 nm, photoinactivator 40 μM/L
[14] = wavelength 320 nm, photoinactivator 40 μM/L
[15] = wavelength 360 nm, photoinactivator 40 μM/L
[16] = wavelength 400 nm, photoinactivator 40 μM/L
[17] = wavelength 440 nm, photoinactivator 40 μM/L
[18] = wavelength 480 nm, photoinactivator 40 μM/L
[19] = wavelength 520 nm, photoinactivator 40 μM/L
[20] = wavelength 560 nm, photoinactivator 40 μM/L
[21] = wavelength 600 nm, photoinactivator 40 μM/L
[22] = wavelength 640 nm, photoinactivator 40 μM/L
[23] = wavelength 680 nm, photoinactivator 40 μM/L
[24] = wavelength 720 nm, photoinactivator 40 μM/L
[25] = photosensitizer 1280 nM/L, 320 nm for flavins, 560 nm for phenothiazines and porphyrins

| Compound | lg CFU/ml after treatment (P. aeruginosa 6616; [2]) [lg CFU/ml] | lg CFU/ml after treatment (P. aeruginosa 6616; [3]) [lg CFU/ml] | lg CFU/ml after treatment (P. aeruginosa 6616; [4]) [lg CFU/ml] | lg CFU/ml after treatment (P. aeruginosa 6616; [5]) [lg CFU/ml] | lg CFU/ml after treatment (P. aeruginosa 6616; [6]) [lg CFU/ml] | lg CFU/ml after treatment (P. aeruginosa 6616; [7]) [lg CFU/ml] | lg CFU/ml after treatment (P. aeruginosa 6616; [8]) [lg CFU/ml] | lg CFU/ml after treatment (P. aeruginosa 6616; [9]) [lg CFU/ml] | lg CFU/ml after treatment (P. aeruginosa 6616; [10]) [lg CFU/ml] | lg CFU/ml after treatment (P. aeruginosa 6616; [11]) [lg CFU/ml] | lg CFU/ml after treatment (P. aeruginosa 6616; [12]) [lg CFU/ml] | lg CFU/ml after treatment (P. aeruginosa 6616; [13]) [lg CFU/ml] | lg CFU/ml after treatment (P. aeruginosa 6616; [14]) [lg CFU/ml] | lg CFU/ml after treatment (P. aeruginosa 6616; [15]) [lg CFU/ml] | lg CFU/ml after treatment (P. aeruginosa 6616; [16]) [lg CFU/ml] | lg CFU/ml after treatment (P. aeruginosa 6616; [17]) [lg CFU/ml] | lg CFU/ml after treatment (P. aeruginosa 6616; [18]) [lg CFU/ml] | lg CFU/ml after treatment (P. aeruginosa 6616; [19]) [lg CFU/ml] | lg CFU/ml after treatment (P. aeruginosa 6616; [20]) [lg CFU/ml] | lg CFU/ml after treatment (P. aeruginosa 6616; [21]) [lg CFU/ml] | further results |
| --- | --- | --- | --- | --- | --- | --- | --- | --- | --- | --- | --- | --- | --- | --- | --- | --- | --- | --- | --- | --- | --- |
| C=Cc1c(C)c2cc3nc(c4c5[n-]c(cc6nc(cc1[n-]2)C(C)=C6CC)c(C)c5C(=O)[C@@H]4C(=O)OC)[C@@H](CCC(=O)OC/C=C(\C)CCC[C@H](C)CCC[C@H](C)CCCC(C)C)[C@@H]3C.[Mg+2] [Chlorophyll alpha (on TWEEN-80), Chlorophyll alpha] | 2 | 2 | 1 | 1 | 0 | 0 | 0 | 0 | 0 | 9 | 9 | 10 | 10 | 10 | 9 | 9 | 6 | 7 | 0 | 0 | lg CFU/ml after treatment (P. aeruginosa 6616; [22]): 4 lg CFU/ml; lg CFU/ml after treatment (P. aeruginosa 6616; [23]): 6 lg CFU/ml; lg CFU/ml after treatment (P. aeruginosa 6616; [24]): 9 lg CFU/ml |
| Cc1cc(=[N+](C)C)cc2sc3cc(N(C)C)cc(C)c3nc1-2.[Cl-] [Dimethylmethylene blue] | 2 | 1 | 1 | 1 | 0 | 0 | 0 | 0 | 0 |  |  |  |  |  |  |  |  |  |  |  | lg CFU/ml after treatment (P. aeruginosa 6616; [25]): 1 lg CFU/ml |
| C=CC1=C(C)c2cc3[n-]c(cc4[n-]c(cc5nc(cc1n2)C(C)=C5C=C)c(C)c4CCC(=O)O)c(CCC(=O)O)c3C.[Fe+2] [Heme] | 3 | 2 | 2 | 1 | 0 | 0 | 0 | 0 | 0 |  |  |  |  |  |  |  |  |  |  |  |  |
| CN(C)c1ccc2nc3ccc(=[N+](C)C)cc-3sc2c1 [Methylene blue] | 6 | 2 | 1 | 1 | 0 | 0 | 0 | 0 | 0 | 10 | 9 | 8 | 9 | 9 | 9 | 9 | 7 | 4 | 3 | 3 | lg CFU/ml after treatment (P. aeruginosa 6616; [25]): 2 lg CFU/ml; lg CFU/ml after treatment (P. aeruginosa 6616; [22]): 0 lg CFU/ml; lg CFU/ml after treatment (P. aeruginosa 6616; [23]): 0 lg CFU/ml; lg CFU/ml after treatment (P. aeruginosa 6616; [24]): 0 lg CFU/ml |
| Cc1cc2nc3c(=O)[nH]c(=O)nc-3n(C[C@H](O)[C@H](O)[C@H](O)COP(=O)(O)OP(=O)(O)OC[C@H]3O[C@@H](n4cnc5c(N)ncnc54)[C@H](O)[C@@H]3O)c2cc1C [Riboflavin dinucleotide] | 3 | 0 | 0 | 0 | 0 | 0 | 0 | 0 | 0 |  |  |  |  |  |  |  |  |  |  |  |  |
| Cc1cc2nc3c(=O)[nH]c(=O)nc-3n(C[C@H](O)[C@H](O)[C@H](O)COP(=O)(O)O)c2cc1C [Riboflavin mononucleotide] | 4 | 1 | 0 | 0 | 0 | 0 | 0 | 0 | 0 |  |  |  |  |  |  |  |  |  |  |  |  |
| Cc1cc2nc3c(=O)[nH]c(=O)nc-3n(C[C@H](O)[C@H](O)[C@H](O)CO)c2cc1C [Riboflavin] | 6 | 2 | 1 | 0 | 0 | 0 | 0 | 0 | 0 | 0 | 2 | 1 | 0 | 0 | 0 | 0 | 0 | 9 | 8 | 9 | lg CFU/ml after treatment (P. aeruginosa 6616; [22]): 9 lg CFU/ml; lg CFU/ml after treatment (P. aeruginosa 6616; [23]): 7 lg CFU/ml; lg CFU/ml after treatment (P. aeruginosa 6616; [24]): 6 lg CFU/ml; spectral region of highest inactivation efficiency [1]: 180-390 nm |
| Cc1cc2nc3ccc(N(C)C)cc3[s+]c2cc1N.[Cl-] [Toluidine Blue] | 6 | 2 | 1 | 1 | 0 | 0 | 0 | 0 | 0 |  |  |  |  |  |  |  |  |  |  |  | lg CFU/ml after treatment (P. aeruginosa 6616; [25]): 2 lg CFU/ml |
| Cyanocobalamin | 6 | 5 | 4 | 4 | 4 | 2 | 3 | 2 | 0 |  |  |  |  |  |  |  |  |  |  |  |  |
